According to US9573901B2, “Crystal form of chidamide, preparation method and use thereof” (SHENZHEN CHIPSCREEN BIOSCIENCES, LTD., priority 2012, dated 2017):

What was measured:
Solubility = assay type: physicochemical
[1] = Stability test at high temperature, high humidity and strong light exposure; assay type: physicochemical; details: high temperature (60° C.), high humidity (90%±5%) and strong light exposure (4500 Lx±500 Lx)
Experimental: The stability of the chidamide crystal form A and the chidamide crystal form B described herein was tested at high temperature (60° C.), high humidity (90%±5%) and strong light exposure (4500 Lx±500 Lx). […] Both the chidamide crystal form A and the chidamide crystal form B are suitable for the manufacturing of drug products and long-term storage. The chidamide crystal form A and the chidamide crystal form B described herein have excellent performance in terms of oral absorption and inhibition of cell differentiation and proliferation. Additionally, both crystal forms have low toxicity and favorable storage and treatment stability, and can be used in the preparation of a medicament for treating cell differentiation and proliferation-related diseases. Thus, the present invention provides the use of the chidamide crystal form A and the chidamide crystal form B in the preparation of a medicament for treating cell differentiation and proliferation-related diseases.

Nc1cc(F)ccc1NC(=O)c1ccc(CNC(=O)/C=C/c2cccnc2)cc1 [chidamide crystal form A, N-(2-amino-4-fluorophenyl)-4-(N-(3-pyridylacryloyl)aminomethyl)benzamide]
solubility (Solubility): favorable performance in terms of solubility
content and total impurity amount after stability test [1]: no significant change
crystal form after stability test [1]: keep the original crystal form
